Each structure is given as a SMILES string. ≈ marks a conversion by molar mass, not a printed value. Some results are limits rather than exact numbers.

The nature of data set [1]: in vitro. The settings on record: human, Caco-2.
Data set [2] in a line: in vitro. The following applies: human, Caco-2. The source holds these as a separate data set.
Data set [3] can be described thus: in vitro. The settings on record: human, Caco-2. The source holds these as a separate data set.
Data set [4] in a line: in vitro. The settings on record: mouse, liver microsomes.
A short description of data set [5]: Clearance in Sprague-Dawley rat renal blood at 2.9 mg/kg, iv up to 24 hrs by LC-MS analysis. The data set is classed as ADME, organism-based. The settings on record: whole blood.
Data set [6] can be described thus: in vitro. The following applies: Balb/C, mouse, plasma; at 1 µg/mL.
Data set [7] addresses Voltage-gated inwardly rectifying potassium channel KCNH2 (Homo sapiens, UniProt Q12809).
The nature of data set [8]: in vitro. The settings on record: human, Caco-2. The source holds these as a separate data set.
Data set [9] is described as follows: Volume of distribution at steady state in Sprague-Dawley rat blood at 2.9 mg/kg, iv up to 24 hrs by LC-MS analysis. The format is ADME, organism-based. The settings on record: whole blood, read-out: Vdss.
The nature of data set [10]: in vitro. The settings on record: human, Caco-2. This is another data set of the same source.
Data set [11] can be described thus: Volume of distribution at steady state in Sprague-Dawley rat plasma at 2.9 mg/kg, iv up to 24 hrs by LC-MS analysis. The format is ADME, organism-based. The following applies: read-out: Vdss.
The conditions of data set [12]: mouse, microsomes, 1 h, 1 µM.
Data set [13] in a line: physchem. The following applies: HCl, pH 2, pH 2.
Data set [14] is described as follows: in vitro. The settings on record: human, liver microsomes. In general terms: Liver microsomes are vesicles of endoplasmic reticulum, rich in cytochrome P450 enzymes.
Data set [15] is described as follows: Volume of distribution at steady state in Balb/C mouse blood at 1.9 mg/kg, iv up to 24 hrs by LC-MS analysis. The following applies: whole blood, read-out: Vdss. The data set is classed as ADME, organism-based.
Data set [16] is described as follows: cells. The settings on record: Homo sapiens, HEK293, 10 min.
The nature of data set [17]: physchem. The settings on record: PBS, pH 6.5, pH 6.5.
Data set [18] in a line: Drug excretion in Sprague-Dawley rat urine at 2.9 mg/kg, iv up to 24 hrs by LC-MS analysis. The format is ADME, organism-based. The settings on record: read-out: Drug excretion.
The nature of data set [19]: AUC(0 to infinity) in Sprague-Dawley rat plasma at 2.9 mg/kg, iv up to 24 hrs by LC-MS analysis. The data set is classed as ADME, organism-based. On the set-up: route intravenous, dose 2.9 mg/kg, time <=24.
The nature of data set [20]: Apparent half life in Balb/C mouse at 1.9 mg/kg, iv up to 24 hrs by LC-MS analysis. The data set is classed as ADME, organism-based. The following applies: in vivo, read-out: t1/2(app) (converted).
Data set [21] in a line: in vivo. The settings on record: Balb/C, mouse, po, at 1.9 to 3.5 mg/kg.
Data set [22] is described as follows: AUC(0 to infinity) in Balb/C mouse plasma at 1.9 mg/kg, iv up to 24 hrs by LC-MS analysis. The data set is classed as ADME, organism-based. On the set-up: route intravenous, dose 1.9 mg/kg, time <=24.
Data set [23] in a line: Plasma clearance in Balb/C mouse at 1.9 mg/kg, iv up to 24 hrs by LC-MS analysis. The format is ADME, organism-based.
Data set [24] can be described thus: Clearance in Balb/C mouse blood at 1.9 mg/kg, iv up to 24 hrs by LC-MS analysis. The data set is classed as ADME, organism-based. The following applies: whole blood.
The conditions of data set [25]: mouse, blood, 2 h; at 1 µg/mL.
For data set [26] the following is noted: human, microsomes, 1 h, 1 µM.
Data set [27] in a line: Half life in Sprague-Dawley rat at 2.9 mg/kg, iv up to 24 hrs by LC-MS analysis. The data set is classed as ADME, organism-based. The following applies: in vivo.
A short description of data set [28]: Clearance in Sprague-Dawley rat blood at 2.9 mg/kg, iv up to 24 hrs by LC-MS analysis. The data set is classed as ADME, organism-based. The following applies: whole blood.
In data set [29] the target is Sodium channel protein type 5 subunit alpha (Homo sapiens, UniProt Q14524).
Data set [30] can be described thus: Plasma clearance in Sprague-Dawley rat at 2.9 mg/kg, iv up to 24 hrs by LC-MS analysis. The data set is classed as ADME, organism-based.
Data set [31] can be described thus: in vitro. The following applies: mouse, liver microsomes. This is another data set of the same source.
The nature of data set [32]: in vitro. The settings on record: Balb/C, mouse, plasma; at 1 µg/mL. The source holds these as a separate data set.
A short description of data set [33]: in vitro. The following applies: human, liver microsomes. This is another data set of the same source.
Data set [34] in a line: Volume of distribution at steady state in Balb/C mouse plasma at 1.9 mg/kg, iv up to 24 hrs by LC-MS analysis. The format is ADME, organism-based. The following applies: read-out: Vdss.
Data set [35] can be described thus: physchem. The settings on record: octanol/water, pH 7.4.

Voltage-gated inwardly rectifying potassium channel KCNH2, sequence (Q12809 whole entry): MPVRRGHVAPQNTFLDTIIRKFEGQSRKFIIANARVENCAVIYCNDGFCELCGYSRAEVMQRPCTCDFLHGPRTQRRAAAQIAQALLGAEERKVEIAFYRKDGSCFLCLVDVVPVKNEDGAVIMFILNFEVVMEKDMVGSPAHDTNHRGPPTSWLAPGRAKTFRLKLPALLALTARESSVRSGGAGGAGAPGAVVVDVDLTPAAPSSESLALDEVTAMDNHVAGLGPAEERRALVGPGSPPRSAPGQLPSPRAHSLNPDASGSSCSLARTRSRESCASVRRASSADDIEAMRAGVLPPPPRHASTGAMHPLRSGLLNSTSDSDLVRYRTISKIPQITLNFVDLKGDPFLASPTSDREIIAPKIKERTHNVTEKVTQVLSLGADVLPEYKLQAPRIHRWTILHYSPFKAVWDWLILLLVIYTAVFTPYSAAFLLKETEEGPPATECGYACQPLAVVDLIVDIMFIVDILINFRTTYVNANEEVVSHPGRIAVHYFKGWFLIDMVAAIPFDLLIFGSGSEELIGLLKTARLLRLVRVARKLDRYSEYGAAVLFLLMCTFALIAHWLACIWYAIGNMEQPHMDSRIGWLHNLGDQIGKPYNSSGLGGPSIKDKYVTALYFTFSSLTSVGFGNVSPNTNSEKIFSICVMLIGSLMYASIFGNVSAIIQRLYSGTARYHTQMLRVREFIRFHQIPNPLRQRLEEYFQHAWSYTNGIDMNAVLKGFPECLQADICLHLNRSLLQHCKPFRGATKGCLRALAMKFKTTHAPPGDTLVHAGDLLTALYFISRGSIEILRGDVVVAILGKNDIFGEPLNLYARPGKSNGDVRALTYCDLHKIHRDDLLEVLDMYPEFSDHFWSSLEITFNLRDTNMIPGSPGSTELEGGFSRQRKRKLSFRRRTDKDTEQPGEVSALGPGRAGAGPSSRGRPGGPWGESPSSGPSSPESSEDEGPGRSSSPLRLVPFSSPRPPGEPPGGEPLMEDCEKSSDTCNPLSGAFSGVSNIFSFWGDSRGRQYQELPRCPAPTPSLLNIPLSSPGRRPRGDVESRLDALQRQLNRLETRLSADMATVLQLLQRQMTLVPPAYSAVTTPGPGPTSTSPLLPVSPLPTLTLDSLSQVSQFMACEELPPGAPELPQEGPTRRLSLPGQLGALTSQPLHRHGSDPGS
Sodium channel protein type 5 subunit alpha, sequence (Q14524 whole entry): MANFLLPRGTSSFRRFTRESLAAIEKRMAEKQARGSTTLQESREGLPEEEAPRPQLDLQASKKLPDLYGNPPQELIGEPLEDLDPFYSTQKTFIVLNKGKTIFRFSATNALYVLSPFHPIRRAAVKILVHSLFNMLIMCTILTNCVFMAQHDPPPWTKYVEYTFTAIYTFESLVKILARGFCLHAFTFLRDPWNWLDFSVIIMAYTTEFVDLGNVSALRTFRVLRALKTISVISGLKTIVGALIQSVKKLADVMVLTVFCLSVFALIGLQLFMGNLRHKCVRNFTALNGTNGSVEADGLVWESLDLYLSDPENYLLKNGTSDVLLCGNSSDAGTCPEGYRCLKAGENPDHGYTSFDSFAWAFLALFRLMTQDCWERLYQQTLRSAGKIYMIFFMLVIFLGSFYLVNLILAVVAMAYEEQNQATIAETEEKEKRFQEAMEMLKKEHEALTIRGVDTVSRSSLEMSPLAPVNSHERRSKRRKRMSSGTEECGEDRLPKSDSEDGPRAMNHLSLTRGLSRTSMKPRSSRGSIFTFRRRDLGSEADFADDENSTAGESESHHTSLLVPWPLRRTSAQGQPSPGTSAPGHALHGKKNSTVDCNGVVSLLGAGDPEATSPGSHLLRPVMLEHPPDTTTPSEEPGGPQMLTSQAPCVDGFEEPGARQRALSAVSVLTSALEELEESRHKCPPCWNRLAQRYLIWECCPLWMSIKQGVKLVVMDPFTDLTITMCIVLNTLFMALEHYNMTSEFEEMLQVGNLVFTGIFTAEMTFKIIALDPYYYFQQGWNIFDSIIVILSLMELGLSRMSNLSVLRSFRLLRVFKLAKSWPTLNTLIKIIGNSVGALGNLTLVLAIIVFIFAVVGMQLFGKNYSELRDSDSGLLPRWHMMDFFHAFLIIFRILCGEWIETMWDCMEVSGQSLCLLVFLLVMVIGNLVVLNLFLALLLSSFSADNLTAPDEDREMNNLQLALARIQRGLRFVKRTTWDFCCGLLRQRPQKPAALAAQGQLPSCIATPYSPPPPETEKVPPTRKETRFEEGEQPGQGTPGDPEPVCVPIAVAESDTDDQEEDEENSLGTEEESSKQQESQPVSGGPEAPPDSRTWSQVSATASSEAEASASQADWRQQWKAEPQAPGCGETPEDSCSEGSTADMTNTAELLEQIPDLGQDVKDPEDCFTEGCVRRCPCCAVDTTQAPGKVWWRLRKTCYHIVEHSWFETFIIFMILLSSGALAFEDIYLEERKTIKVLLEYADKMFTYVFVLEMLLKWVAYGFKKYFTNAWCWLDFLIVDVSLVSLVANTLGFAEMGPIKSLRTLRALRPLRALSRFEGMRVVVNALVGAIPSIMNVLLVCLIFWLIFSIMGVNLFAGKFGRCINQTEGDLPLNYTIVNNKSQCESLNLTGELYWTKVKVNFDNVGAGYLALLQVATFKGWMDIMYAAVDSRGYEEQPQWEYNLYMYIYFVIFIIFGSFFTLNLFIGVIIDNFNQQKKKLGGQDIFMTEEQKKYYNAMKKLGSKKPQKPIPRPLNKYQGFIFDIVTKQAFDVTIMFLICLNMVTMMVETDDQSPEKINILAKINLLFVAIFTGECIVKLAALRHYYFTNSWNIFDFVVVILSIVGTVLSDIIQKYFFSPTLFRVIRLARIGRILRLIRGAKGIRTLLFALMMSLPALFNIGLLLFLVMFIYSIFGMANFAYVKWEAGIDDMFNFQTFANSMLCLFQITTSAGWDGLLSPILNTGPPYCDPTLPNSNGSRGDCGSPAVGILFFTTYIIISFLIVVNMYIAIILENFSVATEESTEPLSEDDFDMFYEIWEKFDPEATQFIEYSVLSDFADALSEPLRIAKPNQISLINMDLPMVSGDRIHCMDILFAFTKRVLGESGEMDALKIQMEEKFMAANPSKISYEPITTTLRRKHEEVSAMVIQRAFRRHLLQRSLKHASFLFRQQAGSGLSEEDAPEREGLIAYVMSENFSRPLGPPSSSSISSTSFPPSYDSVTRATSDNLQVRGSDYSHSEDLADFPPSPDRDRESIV

What is called Papp A→B is the apparent permeability from the apical to the basolateral side of a cell layer. By efflux ratio is commonly meant the permeability from basolateral to apical divided by that in the opposite direction, in the common usage. As usually defined, the Papp B→A is the apparent permeability from the basolateral to the apical side of a cell layer. For the molecule `CC(C)NCC(O)COc1cccc2ccccc12` (configuration not stated) [PROPRANOLOL], the Papp A→B at 2 h, 20 µM in data set [1] turned out to be 49 ×10⁻⁶ cm/s. In addition, the efflux ratio at 2 h, 20 µM in data set [2] was 1.1. Moreover, the Papp B→A at 2 h, 20 µM in [3] came out at 51 ×10⁻⁶ cm/s.

By microsomal CLint is commonly meant a measure of how fast metabolising enzymes remove a compound, apart from limits set by blood flow. As a reminder, the IC50 is the concentration at which inhibition is half-maximal. A low value points to greater potency. The solubility (kinetic) is the concentration staying in solution when a stock, usually in DMSO, is diluted into the medium. As usually defined, the AUC(0-inf) is total exposure, with the tail of the curve extrapolated. A high value points to high exposure. By bioavailability is commonly meant the share of a dose that reaches the circulation, judged against a reference dose that is usually intravenous. Lower therefore signals little systemic uptake. As usually defined, the clearance is a measure of how efficiently the substance is removed, as volume per time. In general, fraction unbound refers to the share of the substance not bound to proteins or other matrix. The low end stands for extensive binding, the high end for weak binding. Consider `COc1ncc(-c2nc(C(=O)NC(=N)N)c(N)nc2N)cn1`, for which the microsomal CLint at 1 h, 1 µM in [4] and in [33] was under 7 µL/min/mg in each case. The same molecule gave a CL renal at 24 h in data set [5] of 29.2 mL/min/kg. Also, the metabolised at 4 h, 1 ug/ml in [6] is under 6%. Besides, the IC50 in data set [7], in [16] and in [29] was over 30 µM in each case. For the same molecule, the recovery at 2 h, 20 µM in [8] was 104%; in data set [10], 97%. Further, the Vd in data set [9] was 5.2 L/kg; in data set [11], 3.4 L/kg; in [15] it was 0.7 L/kg; in data set [34], 0.7 L/kg. Further, the CL free in [12] and in data set [26] was under 7 µL/min/mg each time. Moreover, the kinetic solubility in data set [13] is over 100 µg/mL; in data set [17], 12.5 µg/mL (≈ 41.2 µM). Further, the half-life at 1 h, 1 µM in data set [14] and in [31] was over 4.25 h in each case. Besides, the dose excreted at 24 h in data set [18] was found to be 36.4%. In addition, the AUC(0-inf) in data set [19] came out at 3.2 µM·h; in data set [22], 2.7 µM·h. Also, the half-life is 0.62 h in data set [20] and 6.7 h in data set [27]. The same molecule yielded a bioavailability at 24 h in data set [21] of 0.81%. Further, the clearance in data set [23] amounted to 38 mL/min/kg; in data set [24], 41 mL/min/kg; in data set [28], 78.9 mL/min/kg; in data set [30] it was 51.3 mL/min/kg. The molecule further returned a Papp A→B at 2 h, 20 µM in data set [1] of 0.57 ×10⁻⁶ cm/s. Further, the Stabilty entry in [25] is on record as “Unstable”. This molecule also gave a fraction unbound at […], 1 ug/ml in data set [32] of 0.4. In data set [3], this molecule returned a Papp B→A at 2 h, 20 µM of 0.26 ×10⁻⁶ cm/s.

What is called logD is the decadic logarithm of the distribution of all forms, ionised or not, between an organic phase and buffer at a given pH. A high value points to higher lipophilicity. Regarding `N=C(N)NC(=O)c1nc(-c2ccc(C(F)(F)F)cc2)c(N2CCCCCC2)nc1N`, the intrinsic metabolic clearance (microsomal CLint) at 1 h, 1 µM in data set [4] stood at 66 µL/min/mg; in [33] it was 23 µL/min/mg. Besides, the CL free was 1020 µL/min/mg in data set [12] and 355 µL/min/mg in data set [26]. Besides, the solubility (kinetic) amounted to 25 µg/mL (≈ 59.3 µM) in [13] and 3.1 µg/mL (≈ 7.36 µM) in data set [17]. Besides, the half-life at 1 h, 1 µM in data set [14] turned out to be 1.27 h; in data set [31], 0.433 h. Further, in [35], the logD was over 5.3.

As to `COC(=O)c1ccccc1-c1c2ccc(=N)cc-2oc2cc(N)ccc12`, in data set [1], the Papp A→B at 2 h, 20 µM was 1.4 ×10⁻⁶ cm/s. The efflux ratio at 2 h, 20 µM in [2] was 8.4. The Papp B→A at 2 h, 20 µM in [3] amounted to 12 ×10⁻⁶ cm/s.

In the case of `N=C(N)NC(=O)c1nc(-c2cc3ccccc3s2)c(N)nc1N`, the microsomal CLint at 1 h, 1 µM amounted to 252 µL/min/mg in data set [4] and 25 µL/min/mg in data set [33]. Moreover, the CL free in data set [12] came out at 417 µL/min/mg; in data set [26], 41 µL/min/mg. Also, the kinetic solubility in data set [13] was 50 µg/mL (≈ 153 µM); in [17], 12.5 µg/mL (≈ 38.2 µM). The figures for the half-life at 1 h, 1 µM in data set [14] and in data set [31] were 1.13 h and 0.117 h, respectively. In [35], this molecule had a logD of 2.9.

For the origin of these results see ChEMBL document CHEMBL4732263 (Bioorg Med Chem, 2021).
